# Tests used:
# [1] = Cell cycle arrest in human KB cells assessed as accumulation at G0/G1-phase at 0.1 uM measured after 12 hrs by propidium iodide staining-based flow cytometry (reference value: 48.26%); assay type: functional
# [2] = Cell cycle arrest in human KB cells assessed as accumulation at G0/G1-phase at 0.2 uM measured after 36 hrs by propidium iodide staining-based flow cytometry (reference value: 51.51%); assay type: functional
# [3] = Cell cycle arrest in human KB cells assessed as accumulation at S-phase at 0.05 uM measured after 60 hrs by propidium iodide staining-based flow cytometry (reference value: 12.66%); assay type: functional
# [4] = Cell cycle arrest in human KB cells assessed as accumulation at S-phase at 0.05 uM measured after 24 hrs by propidium iodide staining-based flow cytometry (reference value: 16.96%); assay type: functional
# [5] = Cell cycle arrest in human KB cells assessed as accumulation at G2/M-phase at 0.2 uM measured after 48 hrs by propidium iodide staining-based flow cytometry (reference value: 23.36%); assay type: functional
# [6] = Cell cycle arrest in human KB cells assessed as accumulation at G2/M-phase measured after 12 hrs by propidium iodide staining-based flow cytometry (reference value: 30.19%); assay type: functional
# [7] = Cell cycle arrest in human KB cells assessed as accumulation at G2/M-phase measured after 60 hrs by propidium iodide staining-based flow cytometry (reference value: 18.9%); assay type: functional
# [8] = Cell cycle arrest in human KB cells assessed as accumulation at S-phase at 0.2 uM measured after 24 hrs by propidium iodide staining-based flow cytometry (reference value: 16.96%); assay type: functional
# [9] = Cell cycle arrest in human KB cells assessed as accumulation at SubG1-phase at 0.05 uM measured after 60 hrs by propidium iodide staining-based flow cytometry (reference value: 1.24%); assay type: functional
# [10] = Cell cycle arrest in human KB cells assessed as accumulation at G0/G1-phase at 0.2 uM measured after 60 hrs by propidium iodide staining-based flow cytometry (reference value: 63.85%); assay type: functional
# [11] = Cell cycle arrest in human KB cells assessed as accumulation at S-phase measured after 48 hrs by propidium iodide staining-based flow cytometry (reference value: 13.32%); assay type: functional
# [12] = Cell cycle arrest in human KB cells assessed as accumulation at S-phase at 0.2 uM measured after 60 hrs by propidium iodide staining-based flow cytometry (reference value: 12.66%); assay type: functional
# [13] = Cell cycle arrest in human KB cells assessed as accumulation at G0/G1-phase at 0.1 uM measured after 36 hrs by propidium iodide staining-based flow cytometry (reference value: 51.51%); assay type: functional
# [14] = Cell cycle arrest in human KB cells assessed as accumulation at SubG1-phase at 0.05 uM measured after 24 hrs by propidium iodide staining-based flow cytometry (reference value: 0.76%); assay type: functional
# [15] = Cell cycle arrest in human KB cells assessed as accumulation at SubG1-phase at 0.1 uM measured after 48 hrs by propidium iodide staining-based flow cytometry (reference value: 0.61%); assay type: functional
# [16] = Cell cycle arrest in human KB cells assessed as accumulation at SubG1-phase at 0.05 uM measured after 48 hrs by propidium iodide staining-based flow cytometry (reference value: 0.61%); assay type: functional
# [17] = Cell cycle arrest in human KB cells assessed as increase in subG1-peak at 0.2 uM by propidium iodide staining-based flow cytometry; assay type: functional; conditions: TDE = time-dependent effect
# [18] = Cell cycle arrest in human KB cells assessed as accumulation at G0/G1-phase measured after 48 hrs by propidium iodide staining-based flow cytometry (reference value: 58.26%); assay type: functional
# [19] = Cell cycle arrest in human KB cells assessed as accumulation at G0/G1-phase at 0.1 uM measured after 60 hrs by propidium iodide staining-based flow cytometry (reference value: 63.85%); assay type: functional
# [20] = Cell cycle arrest in human KB cells assessed as accumulation at G0/G1-phase at 0.2 uM measured after 24 hrs by propidium iodide staining-based flow cytometry (reference value: 48.52%); assay type: functional
# [21] = Inhibition of porcine brain tubulin polymerization measured after 60 mins by fluorescence analysis; design: species or system Sus scrofa
# [22] = Antiproliferative activity against human KB cells measured after 72 hrs by MTT assay; assay type: functional, cell-based
# [23] = Cell cycle arrest in human KB cells assessed as accumulation at SubG1-phase at 0.05 uM measured after 12 hrs by propidium iodide staining-based flow cytometry (reference value: 1.23%); assay type: functional
# [24] = Cell cycle arrest in human KB cells assessed as accumulation at SubG1-phase measured after 60 hrs by propidium iodide staining-based flow cytometry (reference value: 1.24%); assay type: functional
# [25] = Cell cycle arrest in human KB cells assessed as accumulation at S-phase at 0.1 uM measured after 48 hrs by propidium iodide staining-based flow cytometry (reference value: 13.32%); assay type: functional
# [26] = Cell cycle arrest in human KB cells assessed as accumulation at G2/M-phase at 0.05 uM measured after 24 hrs by propidium iodide staining-based flow cytometry (reference value: 28.84%); assay type: functional
# [27] = Cell cycle arrest in human KB cells assessed as accumulation at S-phase at 0.2 uM measured after 12 hrs by propidium iodide staining-based flow cytometry (reference value: 15.5%); assay type: functional
# [28] = Cell cycle arrest in human KB cells assessed as accumulation at SubG1-phase measured after 12 hrs by propidium iodide staining-based flow cytometry (reference value: 1.23%); assay type: functional
# [29] = Cell cycle arrest in human KB cells assessed as accumulation at S-phase measured after 36 hrs by propidium iodide staining-based flow cytometry (reference value: 16.51%); assay type: functional
# [30] = Cell cycle arrest in human KB cells assessed as accumulation at SubG1-phase measured after 36 hrs by propidium iodide staining-based flow cytometry (reference value: 0.63%); assay type: functional
# [31] = Cell cycle arrest in human KB cells assessed as accumulation at S-phase measured after 24 hrs by propidium iodide staining-based flow cytometry (reference value: 16.96%); assay type: functional
# [32] = Cell cycle arrest in human KB cells assessed as accumulation at SubG1-phase at 0.1 uM measured after 36 hrs by propidium iodide staining-based flow cytometry (reference value: 0.63%); assay type: functional
# [33] = Cell cycle arrest in human KB cells assessed as accumulation at S-phase at 0.1 uM measured after 24 hrs by propidium iodide staining-based flow cytometry (reference value: 16.96%); assay type: functional
# [34] = Cell cycle arrest in human KB cells assessed as accumulation at G0/G1-phase at 0.05 uM measured after 60 hrs by propidium iodide staining-based flow cytometry (reference value: 63.85%); assay type: functional
# [35] = Cell cycle arrest in human KB cells assessed as accumulation at G2/M-phase at 0.2 uM measured after 12 hrs by propidium iodide staining-based flow cytometry (reference value: 30.19%); assay type: functional
# [36] = Cell cycle arrest in human KB cells assessed as accumulation at G2/M-phase at 0.2 uM measured after 24 hrs by propidium iodide staining-based flow cytometry (reference value: 28.84%); assay type: functional
# [37] = Cell cycle arrest in human KB cells assessed as accumulation at G0/G1-phase measured after 24 hrs by propidium iodide staining-based flow cytometry (reference value: 48.52%); assay type: functional
smiles,measurement,setting,value
COc1ccc(-c2ssc(=O)c2-c2cc(OC)c(OC)c(OC)c2)cc1N,Activity,[1],8.66%
same,Activity,[2],7.48%
same,Activity,[3],8.75%
same,Activity,[4],15.5%
same,Activity,[5],19.4%
same,Activity,[6],64.4%
same,Activity,[7],15.6%
same,Activity,[8],22.2%
same,Activity,[9],34.4%
same,Activity,[10],10.4%
same,Activity,[11],12.6%
same,Activity,[12],6.33%
same,Activity,[13],25.5%
same,Activity,[14],6.04%
same,Activity,[15],33.6%
same,Activity,[16],15.8%
same,Activity,[17],Tde
same,Activity,[18],11.3%
same,Activity,[19],12.3%
same,Activity,[20],6.24%
same,IC50,[21],4440 nM
same,IC50,[22],60 nM
same,Activity,[23],7.09%
same,Activity,[24],58.1%
same,Activity,[25],15.3%
same,Activity,[26],36.6%
same,Activity,[27],22.8%
same,Activity,[28],1.85%
same,Activity,[29],25.4%
same,Activity,[30],25.8%
same,Activity,[31],26.9%
same,Activity,[32],24.3%
same,Activity,[33],25.4%
same,Activity,[34],37.8%
same,Activity,[35],70.2%
same,Activity,[36],55.8%
same,Activity,[37],6.89%

# Reference: ChEMBL document CHEMBL3865818, “4,5-Diaryl-3H-1,2-dithiole-3-thiones and related compounds as combretastatin A-4/oltipraz hybrids: Synthesis, molecular modelling and evaluation as antiproliferative agents and inhibitors of tubulin” (Eur J Med Chem, 2016)
